Reference: US20260125375A1 (Pfizer Inc., priority 2022, published 2026)

Experiments:
CBL-B (residues 36-427) = biological target: T1, CBL-B (residues 36-427) (Homo sapiens, UniProt Q13191); assay: Ligand Displacement Assay (LDA), HTRF competitive binding against BODIPY-labeled fluorescent tracer, CBL-B; conditions: geometric mean of the number of tests, read-out: CBL-B Ki (nM) GMean
T1 construct: Purified CBL-B (residues 36-427) and C-CBL (residues 46-435) proteins from baculovirus-infected insect cells; made in house; host or cells: baculovirus-infected insect cells
In short: (§1)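 Terbium-streptavidin donor on BirA-biotinylated, AviTagged protein from baculovirus-infected insect cells; BODIPY tracer as acceptor. Compound titrations were three-fold and duplicated, […] with 2% DMSO final.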

C-CBL (residues 46-435) = biological target: T2, C-CBL (residues 46-435) (Homo sapiens, UniProt P22681); assay: Ligand Displacement Assay (LDA), HTRF competitive binding against BODIPY-labeled fluorescent tracer, C-CBL; conditions: geometric mean of the number of tests, read-out: C-CBL Ki (nM) GMean
T2 construct: Purified CBL-B (residues 36-427) and C-CBL (residues 46-435) proteins from baculovirus-infected insect cells; made in house; host or cells: baculovirus-infected insect cells
T2 sequence (P22681 46-435): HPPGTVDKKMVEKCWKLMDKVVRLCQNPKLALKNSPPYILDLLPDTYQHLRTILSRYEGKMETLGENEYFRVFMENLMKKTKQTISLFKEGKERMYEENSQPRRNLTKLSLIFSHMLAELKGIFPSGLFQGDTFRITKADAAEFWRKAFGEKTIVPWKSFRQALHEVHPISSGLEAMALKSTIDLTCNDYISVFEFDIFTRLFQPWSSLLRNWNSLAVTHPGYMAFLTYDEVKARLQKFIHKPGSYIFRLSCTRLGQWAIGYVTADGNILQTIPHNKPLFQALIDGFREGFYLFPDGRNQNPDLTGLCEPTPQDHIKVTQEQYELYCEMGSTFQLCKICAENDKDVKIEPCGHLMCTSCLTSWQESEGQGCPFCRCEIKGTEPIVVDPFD
In short: as §1

## C[C@@H](NC1CC(F)(F)C1)c1nc(C(F)(F)F)cc2c(-c3cccc([C@H](c4nncn4C)C4CCC4)c3)n[nH]c12 (single isomer, unassigned) [Example D91]
CBL-B (residues 36-427)
  Ki: 6.2 nM
C-CBL (residues 46-435)
  Ki: 66.8 nM

## Cn1cnnc1[C@@H](c1cccc(-c2n[nH]c3c(CN[C@H]4CCC(F)(F)C4)nc(C(F)(F)F)cc23)c1)C1CCC1 (single isomer, unassigned) [Example G1]
CBL-B (residues 36-427)
  Ki: 11 nM
C-CBL (residues 46-435)
  Ki: 118 nM

## Cn1cnnc1[C@@H](c1cccc(-c2n[nH]c3cnc(C(F)(F)F)cc23)c1)C1CCC1 [Example A1, 3-{3-[(R)-cyclobutyl(4-methyl-4H-1,2,4-triazol-3-yl)methyl]phenyl}-5-(trifluoromethyl)-1H-pyrazolo[3,4-c]pyridine]
CBL-B (residues 36-427)
  Ki: 74.4 nM
C-CBL (residues 46-435)
  Ki: 681 nM

## Cn1cnnc1CC1(c2cccc(-c3n[nH]c4cnc(C(F)(F)F)cc34)c2)COC1 [Example B1, 3-(3-(3-((4-methyl-4H-1,2,4-triazol-3-yl)methyl)oxetan-3-yl)phenyl)-5-(trifluoromethyl)-1H-pyrazolo[3,4-c]pyridine]
CBL-B (residues 36-427)
  Ki: 62.7 nM
C-CBL (residues 46-435)
  Ki: 283 nM

## Cn1cnnc1CC1(c2cccc(-c3n[nH]c4ncc(C(F)(F)F)cc34)c2)COC1 [Example B3, 3-(3-{3-[(4-methyl-4H-1,2,4-triazol-3-yl)methyl]oxetan-3-yl}phenyl)-5-(trifluoromethyl)-1H-pyrazolo[3,4-b]pyridine]
CBL-B (residues 36-427)
  Ki: 75.3 nM
C-CBL (residues 46-435)
  Ki: 363 nM

## Cn1cnnc1[C@@H](c1cccc(-c2n[nH]c3c(CN[C@@H]4CCC[C@@H]4O)nc(C(F)(F)F)cc23)c1)C1CCC1 [Example C1, (1S,2R)-2-({[3-{3-[(R)-cyclobutyl(4-methyl-4H-1,2,4-triazol-3-yl)methyl]phenyl}-5-(trifluoromethyl)-1H-pyrazolo[3,4-c]pyridin-7-yl]methyl}amino)cyclopentan-1-ol]
CBL-B (residues 36-427)
  Ki: 0.6 nM
C-CBL (residues 46-435)
  Ki: 7.1 nM

## Cn1cnnc1[C@@H](c1cccc(-c2n[nH]c3c(CN[C@H]4CCC[C@@H]4O)nc(C(F)(F)F)cc23)c1)C1CCC1 [Example C4, (1S,2S)-2-({[3-{3-[(R)-cyclobutyl(4-methyl-4H-1,2,4-triazol-3-yl)methyl]phenyl}-5-(trifluoromethyl)-1H-pyrazolo[3,4-c]pyridin-7-yl]methyl}amino)cyclopentan-1-ol]
CBL-B (residues 36-427)
  Ki: 3.3 nM
C-CBL (residues 46-435)
  Ki: 47.4 nM

## C[C@H]1CN(Cc2nc(C(F)(F)F)cc3c(-c4cccc([C@H](c5nncn5C)C5CCC5)c4)n[nH]c23)CCO1 [Example C6, 3-{3-[(R)-cyclobutyl(4-methyl-4H-1,2,4-triazol-3-yl)methyl]phenyl}-7-{[(2S)-2-methylmorpholin-4-yl]methyl}-5-(trifluoromethyl)-1H-pyrazolo[3,4-c]pyridine]
CBL-B (residues 36-427)
  Ki: 25.8 nM
C-CBL (residues 46-435)
  Ki: 256 nM

## C[C@H]1CCCN(Cc2nc(C(F)(F)F)cc3c(-c4cccc([C@H](c5nncn5C)C5CCC5)c4)n[nH]c23)C1 [Example C7, 3-{3-[(R)-cyclobutyl(4-methyl-4H-1,2,4-triazol-3-yl)methyl]phenyl}-7-{[(3S)-3-methylpiperidin-1-yl]methyl}-5-(trifluoromethyl)-1H-pyrazolo[3,4-c]pyridine]
CBL-B (residues 36-427)
  Ki: 3.7 nM
C-CBL (residues 46-435)
  Ki: 53.1 nM

## C[C@H](N[C@H]1CCC(F)(F)C1)c1nc(C(F)(F)F)cc2c(-c3cccc([C@H](c4nncn4C)C4CCC4)c3)n[nH]c12 [Example C8]
CBL-B (residues 36-427)
  Ki: 1.1 nM
C-CBL (residues 46-435)
  Ki: 3 nM

## C[C@@H](N[C@H]1CCC(F)(F)C1)c1nc(C(F)(F)F)cc2c(-c3cccc([C@H](c4nncn4C)C4CCC4)c3)n[nH]c12 [Example C9]
CBL-B (residues 36-427)
  Ki: 5 nM
C-CBL (residues 46-435)
  Ki: 85.2 nM

## CC(NC1CCCC1)c1nc(C(F)(F)F)cc2c(-c3cccc([C@H](c4nncn4C)C4CCC4)c3)n[nH]c12 (stereo partly drawn) [Example C14, N-{(1ξ)-1-[3-{3-[(R)-cyclobutyl(4-methyl-4H-1,2,4-triazol-3-yl)methyl]phenyl}-5-(trifluoromethyl)-1H-pyrazolo[3,4-c]cyclopen-7-yl]ethyl}cyclopentanamine]
CBL-B (residues 36-427)
  Ki: 0.4 nM
C-CBL (residues 46-435)
  Ki: 2.3 nM

## C[C@@H](NC1CCC1)c1nc(C(F)(F)F)cc2c(-c3cccc(C4(Cc5nncn5C)COC4)c3)n[nH]c12 [Example C16]
CBL-B (residues 36-427)
  Ki: 10 nM
C-CBL (residues 46-435)
  Ki: 49.3 nM

## C[C@@H]1CCCN(Cc2nc(C(F)(F)F)cc3c(-c4cccc(C5(Cc6nncn6C)COC5)c4)n[nH]c23)C1 [Example C29, 7-{[(3R)-3-methylpiperidin-1-yl]methyl}-3-(3-{3-[(4-methyl-4H-1,2,4-triazol-3-yl)methyl]oxetan-3-yl}phenyl)-5-(trifluoromethyl)-1H-pyrazolo[3,4-c]pyridine]
CBL-B (residues 36-427)
  Ki: 8.5 nM
C-CBL (residues 46-435)
  Ki: 46.3 nM

## C[C@H]1CCCN(Cc2nc(C(F)(F)F)cc3c(-c4cccc(C5(Cc6nncn6C)COC5)c4)n[nH]c23)C1 [Example C30, 7-{[(3S)-3-methylpiperidin-1-yl]methyl}-3-(3-{3-[(4-methyl-4H-1,2,4-triazol-3-yl)methyl]oxetan-3-yl}phenyl)-5-(trifluoromethyl)-1H-pyrazolo[3,4-c]pyridine]
CBL-B (residues 36-427)
  Ki: 3.6 nM
C-CBL (residues 46-435)
  Ki: 23.4 nM

## Cn1cnnc1CC1(c2cccc(-c3n[nH]c4c(CN5CCCCC5)nc(C(F)(F)F)cc34)c2)COC1 [Example C33, 3-(3-{3-[(4-methyl-4H-1,2,4-triazol-3-yl)methyl]oxetan-3-yl}phenyl)-7-[(piperidin-1-yl)methyl]-5-(trifluoromethyl)-1H-pyrazolo[3,4-c]pyridine]
CBL-B (residues 36-427)
  Ki: 22.6 nM
C-CBL (residues 46-435)
  Ki: 111 nM

## Cn1cnnc1CC1(c2cccc(-c3n[nH]c4c(CN[C@H]5CCC(F)(F)C5)nc(C(F)(F)F)cc34)c2)COC1 [Example C38, (1S)-3,3-difluoro-N-{[3-(3-{3-[(4-methyl-4H-1,2,4-triazol-3-yl)methyl]oxetan-3-yl}phenyl)-5-(trifluoromethyl)-1H-pyrazolo[3,4-c]pyridin-7-yl]methyl}cyclopentan-1-amine]
CBL-B (residues 36-427)
  Ki: 6.9 nM
C-CBL (residues 46-435)
  Ki: 32.9 nM

## Cn1cnnc1[C@@H](c1cccc(-c2n[nH]c3c(CN[C@H]4CCOC4)nc(C(F)(F)F)cc23)c1)C1CCC1 [Example D1, (3S)—N-{[3-{3-[(R)-cyclobutyl(4-methyl-4H-1,2,4-triazol-3-yl)methyl]phenyl}-5-(trifluoromethyl)-1H-pyrazolo[3,4-c]pyridin-7-yl]methyl}oxolan-3-amine]
CBL-B (residues 36-427)
  Ki: 22.4 nM
C-CBL (residues 46-435)
  Ki: 210 nM

## Cn1cnnc1[C@@H](c1cccc(-c2n[nH]c3c(CNC4CCCC4)nc(C(F)(F)F)cc23)c1)C1CCC1 [Example D4]
CBL-B (residues 36-427)
  Ki: 5.1 nM
C-CBL (residues 46-435)
  Ki: 54.8 nM

## C[C@H](NC1CCC1)c1nc(C(F)(F)F)cc2c(-c3cccc(C4(Cc5nncn5C)COC4)c3)n[nH]c12 [Example F1, N-{(1S)-1-[3-(3-{3-[(4-methyl-4H-1,2,4-triazol-3-yl)methyl]oxetan-3-yl}phenyl)-5-(trifluoromethyl)-1H-pyrazolo[3,4-c]pyridin-7-yl]ethyl}cyclobutanamine]
CBL-B (residues 36-427)
  Ki: 1.3 nM
C-CBL (residues 46-435)
  Ki: 7.3 nM

## C[C@H](N)c1nc(C(F)(F)F)cc2c(-c3cccc([C@H](c4nncn4C)C4CCC4)c3)n[nH]c12 [Example K12, (1S)-1-[3-{3-[(R)-cyclobutyl(4-methyl-4H-1,2,4-triazol-3-yl)methyl]phenyl}-5-(trifluoromethyl)-1H-pyrazolo[3,4-c]pyridin-7-yl]ethan-1-amine]
CBL-B (residues 36-427)
  Ki: 19.3 nM
C-CBL (residues 46-435)
  Ki: 136 nM
